One compound from patent US20050171084A1, “Methods of treatment with lxr modulators” (priority 2002, published 2005) can be followed below.

Assay [1] relates to Cortical neurons. As to the kind of experiment: Neurite outgrowth in cortical neurons. It counts as cell-based, rat. Conditions: CR neurons, 24 hours, standard error of triplicate wells in parentheses. How it is done: Cortical neurons: Cortex from gestational day 18-20 rat embryos were collected in HBSS on ice. Cells were dissociated as described for hippocampal neurons. Cells were pelted (200 g, 5 mins and resuspended in medium as described for hippocampal cells. Cells were plated at 6000 cells/well and cultured for 24 hours.
(§1) The test compound was solubilised in DMSO and added to culture medium at time of cell plating at a dilution of 1:1000. Vehicle only (1:1000) was added to culture medium of untreated controls. Cells were fixed with 4% paraformaldehyde for 1 hour on ice, washed with PBS and stained using Coomassie. Assays were quantified using a KS300 image analysis system (Imaging Associates, UK). For each cell measured, the length from the edge of the cell to the end of the longest neurite was measured for 100 cells/well for each treatment in triplicate. All data are means and SEM pooled from three independent experiments. Results are expressed as a percentage of the length of neurites of cells treated with vehicle alone.

The subject of assay [2] is NTW8 mouse microglial cells. Kind of assay: Secretion of pro-inflammatory mediators from LPS/IFN-γ stimulated microglia. It counts as cell-based. Conditions: LPS/INF-γ stimulated microglia cells, 24 hrs. How it is done:
NTW8 mouse microglial cells were plated into a 96 well plate at a density of 2×10^5 cells/well in DMEM supplemented with 10% FCS, 2 mM glutamine, 10 ng/ml basic fibroblast growth factor (R&D Systems) and N-2 (Gibco). Next day, cell were stimulated for 24 hrs in DMEM containing 10 ng/ml LPS (Sigma) and 20 U/ml IFN-γ (Gibco) in the presence of increasing concentrations of the test compound solubilised in DMSO. Media was removed after 24 hrs and analysed by ELISA for secreted IL-6, TNF-α (R&D systems) and PGE2 (Amersham) or via a Greiss assay for nitric oxide (NO) production. Cell viability was assessed by an MTT assay (Promega). All data are means and SEM pooled from two independent experiments. Results are expressed as a percentage of the LPS\INF-γ stimulated control cells treated with DMSO alone.

Assay [3] relates to Hippocampal neurons. As to the kind of experiment: Neurite outgrowth in hippocampal neurons. It is filed as cell-based, rat. Conditions: HC neurons, 48 hours, SEM in parentheses. How it is done: Hippocampal neurons: The hippocampi of gestational day 18 rat embryos were dissected out, incubated in trypsin (0.08%, 30 min at 37° C.) and dissociated mechanically (16). Hippocampal cells were resuspended in neurobasal medium supplemented with B27, anti-oxidants, 1 mM glutamine, 25 μM glutamate, 1 mM pyruvate. For outgrowth assays, cells were plated at a density of 3000 cells/well into 96 well dishes that had previously been coated with poly-D-lysine followed by 10% FCS and cultured for 48 hours.
as §1

`O=C(O)Cc1cccc(OCCCN(Cc2cccc(C(F)(F)F)c2Cl)CC(c2ccccc2)c2ccccc2)c1` [Example 1, 2-(3-{3-[[2-Chloro-3-(trifluoromethyl)benzyl](2,2-diphenylethyl)amino]propoxy}-phenyl)acetic Acid]: the “length of longest neurite, percentage of cells treated with vehicle alone” value is recorded as 105 (1.79) % in assay [1] (0.3 μm test compound); 110 (2.4) % in assay [1] (1.0 μm test compound); 123.6 (6.6) % in assay [1] (3.0 μm test compound); 126.23 (2.5) % in assay [1] (10.0 μm test compound); 109 (6.25) % in assay [3] (0.3 μm test compound); 113 (5.05) % in assay [3] (1.0 μm test compound). The “length of longest neurite, percentage of cells treated with vehicle alone” value in assay [3] (3.0 μm test compound) is given as 120 (7.75) %; in assay [3] (10.0 μm test compound) it was 147 (11.8) %. The “secretion of IL-6” value in assay [2] (ELISA (FIG. 2)) is reported as “inhibited”. Further, the “secretion of PGE2” value in assay [2] (ELISA (FIG. 2)) was “inhibited”. The “secretion of TNF-α” value in assay [2] (ELISA (FIG. 2)) is given as “inhibited”. In addition, in assay [2] (Greiss assay (FIG. 2)), the NO production entry was “inhibited”.
